Patent publication US20200131144A1, “AMINE OR (THIO)AMIDE CONTAINING LXR MODULATORS” (Phenex-FXR GmbH, priority 2017, published 2020)

Tests used:
[1] = target: T1, LXRα ligand-binding domain (LBD) (Homo sapiens, UniProt Q13133); assay: LXR Gal4 reporter transient transfection assay, mammalian two-hybrid, LBD-M2H Gal4α; assay type: cell-based; conditions: HEK293 cells; inverse agonist unless *
T1 construct: expressed in transfected cells; host or cells: HEK293
T1 sequence (Q13133 155-447): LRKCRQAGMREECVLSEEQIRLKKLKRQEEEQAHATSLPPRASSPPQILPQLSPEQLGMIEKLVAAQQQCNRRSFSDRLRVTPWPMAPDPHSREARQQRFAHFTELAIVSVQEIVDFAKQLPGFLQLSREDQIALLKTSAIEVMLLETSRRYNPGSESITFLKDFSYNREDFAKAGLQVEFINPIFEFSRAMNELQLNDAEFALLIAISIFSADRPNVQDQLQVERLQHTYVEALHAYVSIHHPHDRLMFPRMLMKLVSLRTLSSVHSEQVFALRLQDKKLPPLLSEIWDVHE
Protocol: (§1) The tested compounds were usually dissolved, tested and stored as 20 mM stock solutions in DMSO. Since sulfonyl acetic acid derivatives tend to decarboxylate under these conditions, these stock solutions were prepared, tested and stored as 20 mM DMSO stock solutions containing 100 mM trifluoroacetic acid (5 equivalents). Sulfonyl acetic acid derivatives are shelf stable as solid at rt for long time as reported by Griesbrecht et al. (Synlett 2010:374) or Faucher et al. (J. Med. Chem. 2004; 47:18).
(§2) LXR Gal4 Reporter Transient Transfection Assays
(§3) LXRα and LXRβ activity status was determined via detection of interaction with coactivator and corepressor proteins in mammalian two-hybrid experiments (M2H). For this, via transient transfection the full length (FL) proteins of LXRα (amino acids 1-447; NP005684; SEQ ID NO:1) or LXRβ-(amino acids 1-461; NP009052; SEQ ID NO:2) or the ligand-binding domains (LBD) of LXRα (amino acids 155-447 SEQ ID NO:3) or LXR (amino acids 156-461; SEQ ID NO:4) were expressed from pCMV-AD (Stratagene) as fusions to the transcriptional activation domain of NFkB. As cofactors, domains of either the steroid receptor coactivator 1 (SRC1; amino acids 552-887; SEQ ID NO:5) or of the corepressor NCoR (amino acids 1906-2312; NP006302; SEQ ID NO:6) were expressed as fusions to the DNA binding domain of the yeast transcription factor GAL4 (from pCMV-BD; Stratagene). Interaction was monitored via activation of a coexpressed Firefly Luciferase Reporter gene under control of a promoter containing repetitive GAL4 response elements (vector pFRLuc; Stratagene). Transfection efficiency was controlled via cotransfection of constitutively active pRL-CMV Renilla reniformis luciferase reporter (Promega). HEK293 cells were grown in minimum essential medium (MEM) with 2 mM L-glutamine and Earle's balanced salt solution supplemented with 8.3% fetal bovine serum, 0.1 mM non-essential amino acids, 1 mM sodium pyruvate, at 37° C. in 5% CO2. 3.5×10^4 cells/well were plated in 96-well cell culture plates in growth medium supplemented with 8.3% fetal bovine serum for 16-20 h to—90% confluency. For transfection, medium was taken off and LXR and cofactor expressing plasmids as well as the reporter plasmids are added in 30 μL OPTIMEM/well including polyethylene-imine (PEI) as vehicle. Typical amounts of plasmids transfected/well: pCMV-AD-LXR (5 ng), pCMV-BD-cofactor (5 ng), pFR-Luc (100 ng), pRL-CMV (0.5 ng). Compound stocks were prepared in DMSO, prediluted in MEM to a total volume of 120 μL, and added 4 h after addition of the transfection mixture (final vehicle concentration not exceeding 0.2%). Cells were incubated for additional 16 h, lysed for 10 min in 1×Passive Lysis Buffer (Promega) and Firefly and Renilla luciferase activities were measured sequentially in the same cell extract using buffers containing D-luciferine and coelenterazine, respectively. Measurements of luminescence were done in a BMG-luminometer.

[2] = target: T2, GST-LXRβ ligand-binding domain (Homo sapiens, UniProt P55055, INS174Q); assay: TR-FRETβ activity assay (NCoA3 coactivator peptide recruitment); assay type: biochemical; conditions: 1 μM 24(S)-25-epoxycholesterol as prestimulating agonist; inverse agonist unless *
T2 construct: amino acids 156-461; NP009052; made in house; host or cells: E. coli
T2 sequence (P55055 with tags, fused parts or gaps INS174Q limits assumed): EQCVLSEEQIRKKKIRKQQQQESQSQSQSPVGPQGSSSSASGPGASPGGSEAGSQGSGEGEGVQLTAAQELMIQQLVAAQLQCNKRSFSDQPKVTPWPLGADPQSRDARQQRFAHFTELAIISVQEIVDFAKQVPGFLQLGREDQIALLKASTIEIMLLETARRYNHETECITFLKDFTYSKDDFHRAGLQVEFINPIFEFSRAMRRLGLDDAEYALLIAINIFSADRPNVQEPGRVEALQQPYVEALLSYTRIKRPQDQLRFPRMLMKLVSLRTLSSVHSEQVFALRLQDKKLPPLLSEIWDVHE
In short: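 Coactivator recruitment read as TR-FRET (ex 340, em 615 and 665 nm) after 1 h equilibration at 4° C, in triplicate. Mix held 76 nM GST-tagged LXRβ LBD (aa 156-461, E. coli), 400 nM biotin-NCoA3 peptide, Tb-cryptate anti-GST, streptavidin-XL665, 240 mM KCl buffer.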

[3] = target: T3, LXRβ ligand-binding domain (LBD) (Homo sapiens, UniProt P55055, INS174Q); assay: LXR Gal4 reporter transient transfection assay, mammalian two-hybrid, LBD-M2H Gal4β; assay type: cell-based; conditions: HEK293 cells; inverse agonist unless *
T3 construct: or LXR (amino acids 156-461); expressed in transfected cells; host or cells: HEK293
T3 sequence (P55055 with tags, fused parts or gaps INS174Q limits assumed): T2 sequence (P55055 with tags, fused parts or gaps INS174Q limits assumed)
Protocol: as §1, §2, §3

LXRα full length (FL) = target: T4, LXRα full length (FL) (Homo sapiens, UniProt Q13133); assay: LXR Gal4 reporter transient transfection assay, mammalian two-hybrid, FL-M2H Gal4α; assay type: cell-based; conditions: HEK293 cells; inverse agonist unless *
T4 construct: the full length (FL) proteins of LXRα (amino acids 1-447); NP005684; expressed in transfected cells; host or cells: HEK293
T4 sequence (Q13133 1-447): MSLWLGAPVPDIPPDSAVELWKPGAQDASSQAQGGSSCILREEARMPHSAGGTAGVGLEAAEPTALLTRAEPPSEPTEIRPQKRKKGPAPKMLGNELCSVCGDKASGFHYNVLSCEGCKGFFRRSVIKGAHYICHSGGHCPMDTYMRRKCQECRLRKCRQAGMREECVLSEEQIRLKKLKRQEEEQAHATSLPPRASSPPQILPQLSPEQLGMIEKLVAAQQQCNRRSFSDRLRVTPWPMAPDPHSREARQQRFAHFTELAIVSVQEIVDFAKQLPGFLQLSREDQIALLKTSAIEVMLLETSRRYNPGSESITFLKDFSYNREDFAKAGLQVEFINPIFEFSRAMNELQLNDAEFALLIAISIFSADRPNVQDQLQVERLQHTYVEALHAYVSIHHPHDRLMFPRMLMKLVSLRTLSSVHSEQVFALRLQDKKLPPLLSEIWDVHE
In short: (§4)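 Mammalian two-hybrid read-out: interaction of LXRα or LXRβ (full length or ligand-binding domain, NFkB activation-domain fusions) with GAL4-fused SRC1 or NCoR domains drives GAL4-responsive firefly luciferase in HEK293 cells, normalised by Renilla cotransfection. Compounds given 4 h after transfection, ≤0.2% vehicle, cells lysed after 16 h.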

LXRβ full length (FL) = target: T5, LXRβ full length (FL) (Homo sapiens, UniProt P55055, INS174Q); assay: LXR Gal4 reporter transient transfection assay, mammalian two-hybrid, FL-M2H Gal4β; assay type: cell-based; conditions: HEK293 cells; inverse agonist unless *
T5 construct: the full length (FL) proteins of LXRα (amino acids 1-447); NP005684; NP009052; expressed in transfected cells; host or cells: HEK293
T5 sequence (P55055 with tags, fused parts or gaps INS174Q): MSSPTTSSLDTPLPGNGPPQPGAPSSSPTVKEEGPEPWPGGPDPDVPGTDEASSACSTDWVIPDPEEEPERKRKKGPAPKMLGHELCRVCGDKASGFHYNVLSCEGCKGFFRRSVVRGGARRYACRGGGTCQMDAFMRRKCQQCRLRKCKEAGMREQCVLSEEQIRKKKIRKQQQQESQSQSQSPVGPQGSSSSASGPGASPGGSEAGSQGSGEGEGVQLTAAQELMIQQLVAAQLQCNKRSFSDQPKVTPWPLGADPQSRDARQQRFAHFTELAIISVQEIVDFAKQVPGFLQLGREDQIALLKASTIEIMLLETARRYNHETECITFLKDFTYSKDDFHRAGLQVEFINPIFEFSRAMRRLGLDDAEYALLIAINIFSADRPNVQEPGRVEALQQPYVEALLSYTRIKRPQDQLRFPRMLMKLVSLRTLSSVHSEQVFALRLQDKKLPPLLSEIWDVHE
In short: as §4

[4] = Pharmacokinetics in mice after single oral dosing, blood and liver exposure by LC-MS; assay type: in vivo, mice (C57/bl6/J); conditions: single oral dose 20 mg/kg, time point 4 h
Protocol: The pharmacokinetics of the compounds was assessed in mice after single dosing and oral administrations. Blood and liver exposure was measured via LC-MS.
The study design was as follows:
Animals: C57/bl6/J (Janvier) males Diet: standard rodent chow Dose: 20 mg/kg Animal handling: animals were withdrawn from food at least 12 h before administration Design: single dose oral administration, n=3 animals per group Sacrifice: at stated time point (4, 12 or 24 h) after administration Bioanalytics: LC-MS of liver and blood samples

Structure (SMILES) | EC50 [1] | EC50 [2] | EC50 [3] | EC50 (LXRα full length (FL)) | EC50 (LXRβ full length (FL)) | Kp at 4 h ([4]; male, C57/bl6/J, mouse, liver/blood, read-out: liver/blood ratio) | blood/plasma exposure [4] | liver exposure [4]
COc1cc(-c2ccc3c(c2)C(C)(C)C(=O)OC3)ccc1CN(Cc1ccc(C(F)(F)F)o1)Cc1c(C)ccc2ccccc12 [7/9] | 1000 to 10000 nM | 1000 to 10000 nM | < 100 nM | – | – | – | – | –
COc1cc(CN(Cc2ccc(C(F)(F)F)o2)Cc2c(C)ccc3ccccc23)ccc1-c1cccc(C(C)(C)C(=O)O)c1 [22/1] | – | 1000 to 10000 nM | 100 to 1000 nM | – | – | – | – | –
Cc1ccc2ccccc2c1CN(Cc1ccc(C(F)(F)F)o1)Cc1cnc(-c2cccc(C(C)(C)C(=O)O)c2)s1 [22/2] | – | 1000 to 10000 nM | 100 to 1000 nM | – | – | – | – | –
CC(C)(C(=O)O)c1cccc(-c2ccc(CN(Cc3ccc(C(F)(F)F)o3)Cc3cccc4c3OC(F)(F)O4)cc2)c1 [25/2] | 100 to 1000 nM | – | < 100 nM | – | – | – | – | –
Cc1ccc2ccccc2c1CN(Cc1ccc(-c2nc(C(C)(C)C(=O)O)cs2)cc1)Cc1ccc(C(F)(F)F)o1 [26/3] | – | 1000 to 10000 nM | < 100 nM | – | – | – | – | –
Cc1ccc2ccccc2c1CN(Cc1ccc(C(F)(F)F)o1)Cc1ccc(-c2cncc(S(=O)(=O)CC(=O)O)c2)cc1Cl [26/8] | – | 1000 to 10000 nM | – | 100 to 1000 nM | 100 to 1000 nM | 178 | 0.01 µM | 1.41 µM
